Source: PubChem BioAssay AID1963981 (Molecular Pharmacology Branch, DTP, NCI, 2024)

Test system: 354836-022-R-J1-PDC multicell spheroid viability
Assay: Anticancer human tumor 354836-022-R-J1-PDC patient-derived head and neck squamous cell carcinoma cell line growth inhibition [PI3K]
Details: for viability, T/C: stronger effect = lower value
Outline: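 Tumor cells grown as multi-cell spheroids with HUVEC endothelial cells and MSC fibroblast-like stroma were treated with targeted agents combined with inavolisib, alpelisib, duvelisib or copanlisib. Doses fell in half-log steps from near clinical Cmax, else from 10 microM. Viability was measured.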

[1] = curve of first compound, second compound 0.0316 µM
[2] = curve of first compound, second compound 0.1 µM
[3] = curve of first compound, second compound 0.316 µM
[4] = curve of first compound, second compound 1 µM
[5] = second compound 0.0316 µM, first compound 0.0316 µM
[6] = second compound 0.0316 µM, first compound 0.1 µM
[7] = second compound 0.0316 µM, first compound 0.316 µM
[8] = second compound 0.0316 µM, first compound 1 µM
[9] = second compound 0.0316 µM, first compound 3.16 µM
[10] = second compound 0.0316 µM, first compound 10 µM
[11] = second compound 0.1 µM, first compound 0.0316 µM
[12] = second compound 0.1 µM, first compound 0.1 µM
[13] = second compound 0.1 µM, first compound 0.316 µM
[14] = second compound 0.1 µM, first compound 1 µM
[15] = second compound 0.1 µM, first compound 3.16 µM
[16] = second compound 0.1 µM, first compound 10 µM
[17] = second compound 0.316 µM, first compound 0.0316 µM
[18] = second compound 0.316 µM, first compound 0.1 µM
[19] = second compound 0.316 µM, first compound 0.316 µM
[20] = second compound 0.316 µM, first compound 1 µM
[21] = second compound 0.316 µM, first compound 3.16 µM
[22] = second compound 0.316 µM, first compound 10 µM
[23] = second compound 1 µM, first compound 0.0316 µM
[24] = second compound 1 µM, first compound 0.1 µM
[25] = second compound 1 µM, first compound 0.316 µM
[26] = second compound 1 µM, first compound 1 µM
[27] = second compound 1 µM, first compound 3.16 µM
[28] = second compound 1 µM, first compound 10 µM
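Also: spheroids exposed to agents for seven days before the viability read.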

Q: How did the IC50 [1] turn out when Cn1nccc1Nc1nccc(-c2ccn(C(CO)c3ccc(Cl)c(F)c3)c(=O)c2)n1 (stereo not given) + CC(Nc1ncnc2nc[nH]c12)c1cc2cccc(Cl)c2c(=O)n1-c1ccccc1 was run?
A: > 10 µM

Q: What about the IC50 [2] of the same molecule?
A: > 10 µM

Q: And the IC50 [3]?
A: > 10 µM

Q: What about the IC50 [4] of the same molecule?
A: > 10 µM

Q: What about the IC50 (curve of first compound, second compound 3.16 µM) of the same molecule?
A: > 10 µM

Q: And the IC50 (curve of first compound, second compound 10 µM)?
A: > 10 µM

Q: And the viability, T/C [5]?
A: 107%

Q: What about the viability, T/C [6] of the same molecule?
A: 107%

Q: And the viability, T/C [7]?
A: 103%

Q: What about the viability, T/C [8] of the same molecule?
A: 94.9%

Q: What about the viability, T/C [9] of the same molecule?
A: 89.3%

Q: And the viability, T/C [10]?
A: 90.5%

Q: What about the viability, T/C [11] of the same molecule?
A: 108%

Q: And the viability, T/C [12]?
A: 110%

Q: And the viability, T/C [13]?
A: 94.3%

Q: What about the viability, T/C [14] of the same molecule?
A: 104%

Q: What about the viability, T/C [15] of the same molecule?
A: 91.2%

Q: And the viability, T/C [16]?
A: 96.4%

Q: And the viability, T/C [17]?
A: 113%

Q: And the viability, T/C [18]?
A: 93.5%

Q: And the viability, T/C [19]?
A: 87.2%

Q: And the viability, T/C [20]?
A: 106%

Q: And the viability, T/C [21]?
A: 100%

Q: What about the viability, T/C [22] of the same molecule?
A: 94.9%

Q: And the viability, T/C [23]?
A: 117%

Q: What about the viability, T/C [24] of the same molecule?
A: 95.5%

Q: What about the viability, T/C [25] of the same molecule?
A: 111%

Q: And the viability, T/C [26]?
A: 118%

Q: And the viability, T/C [27]?
A: 101%

Q: What about the viability, T/C [28] of the same molecule?
A: 78.2%

Q: And the viability, T/C (second compound 3.16 µM, first compound 0.0316 µM)?
A: 94.4%

Q: And the viability, T/C (second compound 3.16 µM, first compound 0.1 µM)?
A: 91.6%

Q: What about the viability, T/C (second compound 3.16 µM, first compound 0.316 µM) of the same molecule?
A: 99.3%

Q: And the viability, T/C (second compound 3.16 µM, first compound 1 µM)?
A: 97.3%

Q: What about the viability, T/C (second compound 3.16 µM, first compound 3.16 µM) of the same molecule?
A: 107%

Q: What about the viability, T/C (second compound 3.16 µM, first compound 10 µM) of the same molecule?
A: 88.1%

Q: What about the viability, T/C (second compound 10 µM, first compound 0.0316 µM) of the same molecule?
A: 88.3%

Q: And the viability, T/C (second compound 10 µM, first compound 0.1 µM)?
A: 103%

Q: And the viability, T/C (second compound 10 µM, first compound 0.316 µM)?
A: 95.3%

Q: What about the viability, T/C (second compound 10 µM, first compound 1 µM) of the same molecule?
A: 85.4%

Q: What about the viability, T/C (second compound 10 µM, first compound 3.16 µM) of the same molecule?
A: 94%

Q: What about the viability, T/C (second compound 10 µM, first compound 10 µM) of the same molecule?
A: 76.1%

Q: How did the IC50 (curve of first compound, second compound 0.00316 µM) turn out when CCCS(=O)(=O)Nc1ccc(F)c(C(=O)c2c[nH]c3ncc(-c4ccc(Cl)cc4)cc23)c1F + COc1c(OCCCN2CCOCC2)ccc2c3n(c(=NC(=O)c4cnc(N)nc4)nc12)CCN3 was run?
A: 5.87 µM

Q: And the IC50 (curve of first compound, second compound 0.01 µM)?
A: 5.89 µM

Q: And the IC50 [1]?
A: 4.28 µM

Q: What about the IC50 [2] of the same molecule?
A: < 0.0316 µM

Q: And the IC50 [3]?
A: < 0.0316 µM

Q: What about the IC50 [4] of the same molecule?
A: < 0.0316 µM

Q: And the viability, T/C (second compound 0.00316 µM, first compound 0.0316 µM)?
A: 99.6%

Q: What about the viability, T/C (second compound 0.00316 µM, first compound 0.1 µM) of the same molecule?
A: 96%

Q: And the viability, T/C (second compound 0.00316 µM, first compound 0.316 µM)?
A: 97.8%

Q: And the viability, T/C (second compound 0.00316 µM, first compound 1 µM)?
A: 108%

Q: And the viability, T/C (second compound 0.00316 µM, first compound 3.16 µM)?
A: 86.4%

Q: And the viability, T/C (second compound 0.00316 µM, first compound 10 µM)?
A: 18.6%

Q: And the viability, T/C (second compound 0.01 µM, first compound 0.0316 µM)?
A: 85.1%

Q: What about the viability, T/C (second compound 0.01 µM, first compound 0.1 µM) of the same molecule?
A: 93.7%

Q: And the viability, T/C (second compound 0.01 µM, first compound 0.316 µM)?
A: 93.7%

Q: And the viability, T/C (second compound 0.01 µM, first compound 1 µM)?
A: 91.4%

Q: And the viability, T/C (second compound 0.01 µM, first compound 3.16 µM)?
A: 86.4%

Q: And the viability, T/C (second compound 0.01 µM, first compound 10 µM)?
A: 19.1%

Q: And the viability, T/C [5]?
A: 72.8%

Q: What about the viability, T/C [6] of the same molecule?
A: 86.7%

Q: And the viability, T/C [7]?
A: 86.3%

Q: What about the viability, T/C [8] of the same molecule?
A: 78.6%

Q: And the viability, T/C [9]?
A: 64%

Q: And the viability, T/C [10]?
A: 11.1%

Q: What about the viability, T/C [11] of the same molecule?
A: 48.2%

Q: What about the viability, T/C [12] of the same molecule?
A: 43.8%

Q: What about the viability, T/C [13] of the same molecule?
A: 47.1%

Q: And the viability, T/C [14]?
A: 56.4%

Q: And the viability, T/C [15]?
A: 40.7%

Q: And the viability, T/C [16]?
A: 7.62%

Q: And the viability, T/C [17]?
A: 12.5%

Q: And the viability, T/C [18]?
A: 13.2%

Q: And the viability, T/C [19]?
A: 12.3%

Q: What about the viability, T/C [20] of the same molecule?
A: 13.6%

Q: And the viability, T/C [21]?
A: 12.4%

Q: What about the viability, T/C [22] of the same molecule?
A: 1.45%

Q: And the viability, T/C [23]?
A: 1.35%

Q: And the viability, T/C [24]?
A: 1.58%

Q: What about the viability, T/C [25] of the same molecule?
A: 2.26%

Q: And the viability, T/C [26]?
A: 1.47%

Q: And the viability, T/C [27]?
A: 1.69%

Q: What about the viability, T/C [28] of the same molecule?
A: 0.99%

Q: What does the source list for Cn1nccc1Nc1nccc(-c2ccn(C(CO)c3ccc(Cl)c(F)c3)c(=O)c2)n1 (stereo not given)?
A: viability, T/C (compound 0.0316 µM): 107% [middle of 4 runs]; viability, T/C (compound 0.1 µM): 91.8% [middle of 4 runs]; viability, T/C (compound 0.316 µM): 110% [middle of 4 runs]; viability, T/C (compound 1 µM): 94.6% [middle of 4 runs]; viability, T/C (compound 3.16 µM): 106% [middle of 4 runs]; viability, T/C (compound 10 µM): 96.2% [middle of 4 runs]; IC50 (curve of compound): > 10 µM

Q: How did the viability, T/C (compound 0.0316 µM) turn out when CC1(C)CCC(CN2CCN(c3ccc(C(=O)NS(=O)(=O)c4ccc(NCC5CCOCC5)c([N+](=O)[O-])c4)c(Oc4cnc5[nH]ccc5c4)c3)CC2)=C(c2ccc(Cl)cc2)C1 was run?
A: 104% [middle of 4 runs]

Q: What about the viability, T/C (compound 0.316 µM) of the same molecule?
A: 102% [middle of 4 runs]

Q: And the viability, T/C (compound 1 µM)?
A: 82.2% [middle of 4 runs]

Q: And the viability, T/C (compound 3.16 µM)?
A: 72.4% [middle of 4 runs]
